Test results taken from patent publication US9365562B2, “1,3 substituted azetidine PDE10 inhibitors” (Merck Sharp & Dohme Corp., priority 2011, dated 2016).

Biological target: human PDE10A2 (Homo sapiens (Human), UniProt Q9Y233)
Experiment: PDE10 fluorescence polarization (IMAP FP) inhibition assay
Assay type: biochemical
Conditions: apparent inhibition constant, FAM-labeled cAMP substrate 50 nM, room temperature
Procedure: The activity of the compounds in accordance with the present invention as PDE10 inhibitors may be readily determined without undue experimentation using a fluorescence polarization (FP) methodology that is well known in the art (Huang, W., et al., J. Biomol Screen, 2002, 7: 215).
In a typical experiment the PDE10 inhibitory activity of the compounds of the present invention was determined in accordance with the following experimental method. PDE10A2 was amplified from human fetal brain cDNA (Clontech, Mountain View, Calif.) using a forward primer corresponding to nucleotides 56-77 of human PDE10A2 (Accession No. AF127480, Genbank Identifier 4894716), containing a Kozak consensus sequence, and a reverse primer corresponding to nucleotides 2406-2413 of human PDE10A2 (Accession No. AF127480, Genbank Identifier 4894716). Amplification with Easy-A polymerase (Stratagene, La Jolla, Calif.) was 95° C. for 2 minutes followed by thirty three cycles of 95° C. for 40 seconds, 55° C. for 30 seconds, and 72° C. for 2 minutes 48 seconds. Final extension was 72° C. for 7 minutes. The PCR product was TA cloned into pcDNA3.2-TOPO (Invitrogen, Carlsbad, Calif.) according to standard protocol. AD293 cells with 70-80% confluency were transiently transfected with human PDE10A2/pcDNA3.2-TOPO using Lipofectamine 2000 according to manufacturer specifications (Invitrogen, Carlsbad, Calif.). Cells were harvested 48 hours post-transfection and lysed by sonication (setting 3, 10×5 sec pulses) in a buffer containing 20 mM HEPES, 1 mM EDTA and protease inhibitor cocktail (Roche). Lysate was collected by centrifugation at 75,000×g for 20 minutes. Supernatant containing the cytoplasmic fraction was used for evaluation of PDE10A2 activity. The fluorescence polarization assay for cyclic nucleotide phosphodiesterases was performed using an IMAP® FP kit supplied by Molecular Devices, Sunnyvale, Calif. (product # R8139). IMAP® technology has been applied previously to phosphodiesterase assays (Huang, W., et al., J. Biomol Screen, 2002, 7: 215). Assays were performed at room temperature in 384-well microtiter plates with an incubation volume of 20.2 μL. Solutions of test compounds were prepared in DMSO and serially diluted with DMSO to yield 8 μL of each of 10 solutions differing by 3-fold in concentration, at 32 serial dilutions per plate. 100% inhibition is determined using a known PDE10 inhibitor, which can be any compound that is present at 5,000 times its Ki value in the assay described as follows, such as papaverine (see Siuciak, et al. Neuropharmacology (2006) 51:386-396; Becker, et al. Behav Brain Res (2008) 186(2):155-60; Threlfell, et al., J Pharmacol Exp Ther (2009) 328(3):785-795), 2-{4-[pyridin-4-yl-1-(2,2,2-trifluoroethyl)-1H-pyrazol-3-yl]phenoxymethyl}quinoline succinic acid or 2-[4-(1-methyl-4-pyridin-4-yl-1H-pyrazol-3-yl)-phenoxymethyl]quinoline succinic acid (see Schmidt, et al. J Pharmacol Exp Ther (2008) 325:681-690; Threlfell, et al., J Pharmacol Exp Ther (2009) 328(3): 785-795). 0% of inhibition is determined by using DMSO (1% final concentrations). A Labcyte Echo 555 (Labcyte, Sunnyvale, Calif.) is used to dispense […] from each well of the titration plate to the 384 well assay plate. A solution of enzyme (1/7000 dilution from aliquots; sufficient to produce 20% substrate conversion) and a separate solution of FAM-labeled cAMP PDE from Molecular Devices (product # R7506), at a final concentration of 50 nM are made in the assay buffer (10 mM Tris HCl, pH 7.2, 10 mM MgCl2, 0.05% NaN3 0.01% Tween-20, and 1 mM DTT). The enzyme is added to the assay plates by the addition of 10 μL of enzyme solution to each well, shaken to mix and incubated at room temperature for 60 minutes. The substrate is then added to the assay plates by the addition of 10 μL of substrate solution to each well, shaken to mix, and incubated at room temperature for 60 minutes. […]

Sequence of human PDE10A2 (Q9Y233 267-1055): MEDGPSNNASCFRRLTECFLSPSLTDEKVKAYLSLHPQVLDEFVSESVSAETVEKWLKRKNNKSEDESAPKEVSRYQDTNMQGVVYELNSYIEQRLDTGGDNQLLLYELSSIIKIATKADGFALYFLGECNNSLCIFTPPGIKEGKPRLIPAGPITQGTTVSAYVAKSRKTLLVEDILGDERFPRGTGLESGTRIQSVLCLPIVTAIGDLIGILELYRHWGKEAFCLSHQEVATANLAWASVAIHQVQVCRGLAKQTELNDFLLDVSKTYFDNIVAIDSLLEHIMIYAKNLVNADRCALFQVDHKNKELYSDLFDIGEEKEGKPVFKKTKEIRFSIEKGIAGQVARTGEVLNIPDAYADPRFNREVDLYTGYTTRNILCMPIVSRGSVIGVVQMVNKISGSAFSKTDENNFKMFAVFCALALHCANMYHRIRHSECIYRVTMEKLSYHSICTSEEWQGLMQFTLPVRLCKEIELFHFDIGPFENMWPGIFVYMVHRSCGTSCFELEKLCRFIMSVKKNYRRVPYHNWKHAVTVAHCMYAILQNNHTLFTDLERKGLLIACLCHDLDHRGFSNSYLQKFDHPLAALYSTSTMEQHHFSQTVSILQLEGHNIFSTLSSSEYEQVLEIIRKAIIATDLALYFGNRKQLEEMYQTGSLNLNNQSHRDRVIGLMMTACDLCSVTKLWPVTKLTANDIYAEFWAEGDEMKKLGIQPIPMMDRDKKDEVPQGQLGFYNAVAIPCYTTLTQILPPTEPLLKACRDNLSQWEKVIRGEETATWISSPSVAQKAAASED

| Compound | Ki |
| --- | --- |
| CCOC(=O)Cc1nc(C)nn1-c1cc(N2CC(c3nc4ccccc4n3C)C2)nc(C)n1 [Example 44, ethyl 2-(3-methyl-1-(2-methyl-6-(3-(1-methyl-1 benzo[d]imidazol-2-yl)azetidin-1-yl)pyrimidin-4-yl)-1H-1,2,4-triazol-5-yl)acetate] | 2.6 nM |
| Cc1cccc(-c2cc(N3CC(c4nc5ccccc5n4C)C3)nc(C)n2)n1 [Example 98, 1-methyl-2-(1-(2-methyl-6-(6-methylpyridin-2-yl)pyrimidin-4-yl)azetidin-3-yl)-1H-benzo[d]imidazole] | 5.5 nM |
| COc1ccccc1-c1cc(N2CC(c3nc4ccccc4n3C)C2)nc(C)n1 [Example 89, 2-(1-(6-(2-methoxyphenyl)-2-methylpyrimidin-4-yl)azetidin-3-yl)-1-methyl-1H-benzo[d]imidazole] | 63 nM |
| Cc1cn(-c2cc(N3CC(c4nc5ccccc5n4C)C3)nc(C)n2)nn1 [Example 29, 1-methyl-2-(1-(2-methyl-6-(4-methyl-1H-1,2,3-triazol-1-yl)pyrimidin-4-yl)azetidin-3-yl)-1H-benzo[d]imidazole] | 3.1 nM |
| Cc1nc(-c2ccccc2OC(F)F)cc(N2CC(c3nc4ccccc4n3C)C2)n1 [Example 91, 2-(1-(6-(2-(difluoromethoxy)phenyl)-2-methylpyrimidin-4-yl)azetidin-3-yl)-1-methyl-1H-benzo[d]imidazole] | 22 nM |
| Cc1nc(N2CC(c3nc4c(C(F)(F)F)cccc4n3C)C2)cc(-n2nc(C)nc2C)n1 [Example 125, 2-(1-(6-(3,5-dimethyl-1H-1,2,4-triazol-1-yl)-2-methylpyrimidin-4-yl)azetidin-3-yl)-1-methyl-4-(trifluoromethyl)-1H-benzo[d]imidazole] | 37 nM |
| Cc1nc(N2CC(c3nc4ccc(F)cc4[nH]3)C2)cc(-n2nc(C)nc2C)n1 [Example 109, 2-(1-(6-(3,5-dimethyl-1H-1,2,4-triazol-1-yl)-2-methylpyrimidin-4-yl)azetidin-3-yl)-6-fluoro-1H-benzo[d]imidazole] | 8 nM |
| 1-(1-{2-methoxy-6-3-(1-methyl-1H-benzimidazol-2-yl)azetidin-1-yl]pyrimidin-4-yl}-1H-pyrazol-4-yl)ethanol [Example 20] | 37 nM |
| Cc1cn(-c2cc(N3CC(c4nc5ccccc5n4C)C3)nc(C(F)(F)F)n2)nn1 [Example 30, 1-methyl-2-(1-(6-(4-methyl-1H-1,2,3-triazol-1-yl)-2-(trifluoromethyl)pyrimidin-4-yl)azetidin-3-yl)-1H-benzo[d]imidazole] | 5.6 nM |
| COc1nc(C)ccc1-c1cc(N2CC(c3nc4ccccc4n3C)C2)nc(C)n1 [Example 84, 2-(1-(6-(2-methoxy-6-methylpyridin-3-yl)-2-methylpyrimidin-4-yl)azetidin-3-yl)-1-methyl-1H-benzo[d]imidazole] | 27 nM |
| Cc1cnc(-c2nc(C)nn2-c2cc(N3CC(c4nc5ccccc5n4C)C3)nc(C)n2)cn1 [Example 53, 1-methyl-2-(1-(2-methyl-6-(3-methyl-5-(5-methylpyrazin-2-yl)-1H-1,2,4-triazol-1-yl)pyrimidin-4-yl)azetidin-3-yl)-1H-benzo[d]imidazole] | 26 nM |
| Cc1nc(N2CC(c3nc4ccccc4n3C)C2)cc(-n2nc(C)nc2-c2cccnc2)n1 [Example 52, 1-methyl-2-(1-(2-methyl-6-(3-methyl-5-(pyridin-3-yl)-1H-1,2,4-triazol-1-yl)pyrimidin-4-yl)azetidin-3-yl)-1H-benzo[d]imidazole] | 7.5 nM |
| COc1ncccc1-c1cc(N2CC(c3nc4ccccc4n3C)C2)nc(C)n1 [Example 82, 2-(1-(6-(2-methoxypyridin-3-yl)-2-methylpyrimidin-4-yl)azetidin-3-yl)-1-methyl-1H-benzo[d]imidazole] | 27 nM |
| Cc1nc(N2CC(c3nc4ccccc4n3C)C2)cc(-n2nc(C)nc2C2CC(=O)N(C)C2)n1 (stereo not shown) [Example 47, 1-methyl-4-(3-methyl-1-(2-methyl-6-(3-(1-methyl-1H-benzo[d]imidazol-2-yl)azetidin-1-yl)pyrimidin-4-yl)-1H-1,2,4-triazol-5-yl)pyrrolidin-2-one] | 3.9 nM |

The next compounds have a lower Ki than those just listed; values first:

| Ki | Compound |
| --- | --- |
| 2.4 nM | Cc1nc(-c2ccc(C#N)cn2)cc(N2CC(c3nc4ccccc4n3C)C2)n1 [Example 103, 6-(2-methyl-6-(3-(1-methyl-1H-benzo[d]imidazol-2-yl)azetidin-1-yl)pyrimidin-4-yl)nicotinonitrile] |
| 2.2 nM | Cc1nc(-c2nccs2)cc(N2CC(c3nc4ccccc4n3C)C2)n1 [Example 105, 2-(2-methyl-6-(3-(1-methyl-1H-benzo[d]imidazol-2-yl)azetidin-1-yl)pyrimidin-4-yl)thiazole] |
| 1.9 nM | COCCc1nc(C)nn1-c1cc(N2CC(c3nc4ccccc4n3C)C2)nc(C)n1 [Example 42, 2-(1-(6-(5-(2-methoxyethyl)-3-methyl-1H-1,2,4-triazol-1-yl)-2-methylpyrimidin-4-yl)azetidin-3-yl)-1-methyl-1H-benzo[d]imidazole] |
| 1.8 nM | Cc1nc(-c2ccccn2)cc(N2CC(c3nc4ccccc4n3C)C2)n1 [Example 95, 1-methyl-2-(1-(2-methyl-6-(pyridin-2-yl)pyrimidin-4-yl)azetidin-3-yl)-1H-benzo[d]imidazole] |
| 1.4 nM | COc1nc(N2CC(c3nc4ccccc4n3C)C2)cc(-n2ncc(C)n2)n1 [Example 34, 2-{1-[2-methoxy-6-(4-methyl-2H-1,2,3-triazol-2-yl)pyrimidin-4-yl]azetidin-3-yl}-1-methyl-1H-benzimidazole] |
| 1.3 nM | Cc1nc(C)n(-c2cc(N3CC(c4nc5ccccc5n4C)C3)nc(CC#N)n2)n1 [Example 25, 2-(4-(3,5-dimethyl-1H-1,2,4-triazol-1-yl)-6-(3-(1-methyl-1H-benzo[d]imidazol-2-yl)azetidin-1-yl)pyrimidin-2-yl)acetonitrile] |
| 0.76 nM | Cc1nc(N2CC(c3nc4ccccc4n3C)C2)cc(-n2ccc(C(F)(F)F)n2)n1 [Example 11, 1-methyl-2-(1-(2-methyl-6-(3-(trifluoromethyl)-1H-pyrazol-1-yl)pyrimidin-4-yl)azetidin-3-yl)-1H-benzo[d]imidazole] |
| 0.4 nM | Cc1nc(C)n(-c2cc(N3CC(c4nc5ccccc5n4C)C3)nc(OCc3ccno3)n2)n1 [Example 71, 5-(((4-(3,5-dimethyl-1H-1,2,4-triazol-1-yl)-6-(3-(1-methyl-1H-benzo[d]imidazol-2-yl)azetidin-1-yl)pyrimidin-2-yl)oxy)methyl)isoxazole] |
| 0.35 nM | Cc1nc(N2CC(c3nc4ccccc4n3C)C2)cc(-n2nc(C)nc2-c2ccccc2Cl)n1 [Example 50, 2-(1-(6-(5-(2-chlorophenyl)-3-methyl-1H-1,2,4-triazol-1-yl)-2-methylpyrimidin-4-yl)azetidin-3-yl)-1-methyl-1H-benzo[d]imidazole] |
| 0.28 nM | Cc1nc(C)n(-c2cc(N3CC(c4nc5ccccc5n4C)C3)nc(OCc3nccs3)n2)n1 [Example 72, 2-(((4-(3,5-dimethyl-1H-1,2,4-triazol-1-yl)-6-(3-(1-methyl-1H-benzo[d]imidazol-2-yl)azetidin-1-yl)pyrimidin-2-yl)oxy)methyl)thiazole] |
| 0.24 nM | Cc1nc(N2CC(c3nc4ccccc4n3C)C2)cc(-n2nc(C)nc2-c2c(F)cccc2F)n1 [Example 56, 2-(1-(6-(5-(2,6-difluorophenyl)-3-methyl-1H-1,2,4-triazol-1-yl)-2-methylpyrimidin-4-yl)azetidin-3-yl)-1-methyl-1H-benzo[d]imidazole] |
